Laboratory results reported in patent US20230212239A1, “INHIBITORS OF CBL AUTOINHIBITION AND RELATED METHODS” (THE HOSPITAL FOR SICK CHILDREN, priority 2020, published 2023).

Molecular target: T1, purified recombinant CBL protein containing the TKBD-LHR-RING region (Homo sapiens, UniProt P22681)
T1 construct: Residues 25-357 and 2-436 of CBL were cloned in frame into pGEX4T-1; GST (N); made in house
T1 sequence (P22681 2-436): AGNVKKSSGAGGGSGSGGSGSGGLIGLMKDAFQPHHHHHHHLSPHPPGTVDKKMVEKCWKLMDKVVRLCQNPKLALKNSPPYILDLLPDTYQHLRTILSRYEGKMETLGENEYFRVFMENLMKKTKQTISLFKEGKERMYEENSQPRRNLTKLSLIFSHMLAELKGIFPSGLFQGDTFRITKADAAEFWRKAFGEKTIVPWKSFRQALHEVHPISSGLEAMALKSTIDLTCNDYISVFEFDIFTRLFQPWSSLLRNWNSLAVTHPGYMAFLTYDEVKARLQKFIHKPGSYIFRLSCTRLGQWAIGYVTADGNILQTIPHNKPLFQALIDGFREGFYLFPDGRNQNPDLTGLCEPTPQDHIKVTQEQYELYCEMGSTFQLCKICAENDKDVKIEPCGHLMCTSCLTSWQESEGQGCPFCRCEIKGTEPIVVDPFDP
Test: High-throughput in vitro autoubiquitination assay (modified ELISA-based LifeSensors assay, 384 well), hit validation
Type: biochemical
Conditions: validation: triplicate wells; confirmed at percent activation cutoff of at least 20% in at least 2 wells
Text: As an approach to identify novel compounds that mimic SLAP2 binding, and thus stimulate CBL E3 ligase activity, an in vitro autoubiquitination assay was developed based on a modification of a commercially available ELISA based assay (LifeSensors, Inc) and adapted to a 384 well high throughput screen (HTS) format (FIG. 13). The assay uses purified recombinant CBL protein containing the TKBD-LHR-RING region and has been optimized using reference controls; phosphorylated CBL, and CBL with or without addition of purified pSLAP2. Reaction components contained in a master mix (E1, E2, free Ub), test compound and purified CBL are free in solution allowing native protein interactions, and polyubiquitin chains are captured by an immobilized ubiquitin binding domain and quantified using an anti-ubiquitin antibody detection method.
Peptidomimetic Screen: A library of 3000 α-helix and β/γ-turn peptidomimetic compounds were screened across 10 384 well plates. A primary screen yielded 14 hits from the OICR Peptidomimetic library (0.47% hit rate). A hit was defined as any compound producing a luminescent signal at least 4 Standard Deviations from the mean of all compounds on the plate (FIG. 14).
Validation experiment: Triplicate wells of hit compounds were randomly dispersed on plates and hits were confirmed based on a percent activation cutoff of at least 20% in at least 2 wells.

| confirmed hit: CBL activation | SMILES |
| --- | --- |
| active | Cc1cc2c(cc1C(=O)NCc1c(F)cccc1Cl)OCCCO2 [Hit 1, N-[(2-chloro-6-fluorophenyl)methyl]-8-methyl-3,4-dihydro-2H-1,5-benzodioxepine-7-carboxamide] |
| active | COc1ccc(CNC(=O)C2(C)CCCN(S(=O)(=O)c3cccc(C(F)(F)F)c3)C2)cc1 (stereo not shown) [Hit 4, N-[(4-methoxyphenyl)methyl]-3-methyl-1-[3-(trifluoromethyl)benzenesulfonyl]piperidine-3-carboxamide] |
| active | O=S(=O)(Nc1ccc(OC(F)(F)F)cc1)c1ccc(-c2cnc(C3CCC3)o2)s1 [Hit 6, 5-(2-cyclobutyl-1,3-oxazol-5-yl)-N-[4-(trifluoromethoxy)phenyl]thiophene-2-sulfonamide] |
| active | O=C(NCC(=O)N1CCN(c2ccc(-c3noc(C4CCC4)n3)cc2)CC1)c1ccco1 [Hit 9, N-(2-{4-[4-(5-cyclobutyl-1,2,4-oxadiazol-3-yl)phenyl]piperazin-1-yl}-2-oxoethyl)furan-2-carboxamide] |
| active | CC(C)OCCCNC(=O)c1cnc2scc(-c3ccccc3)n2c1=O [Hit 10, 5-oxo-3-phenyl-N-[3-(propan-2-yloxy)propyl]-5H-[1,3]thiazolo[3,2-a]pyrimidine-6-carboxamide] |
| active | O=S(=O)(Nc1ccc(Cl)c(C(F)(F)F)c1)c1cc(-c2noc(C3CCC3)n2)cs1 [Hit 5, N-[4-chloro-3-(trifluoromethyl)phenyl]-4-(5-cyclobutyl-1,2,4-oxadiazol-3-yl)thiophene-2-sulfonamide] |
| active | COc1ccc(S(=O)(=O)Nc2cccn3c(C4CCC4)nnc23)cc1Cl [Hit 3, 3-chloro-N-{3-cyclobutyl-[1,2,4]triazolo[4,3-a]pyridin-8-yl}-4-methoxybenzene-1-sulfonamide] |
| active | Cc1ccc(S(=O)(=O)N2C(=O)CCC2C(=O)Nc2cccc3ccccc23)cc1 (stereo not shown) [Hit 7, 1-(4-methylbenzenesulfonyl)-N-(naphthalen-1-yl)-5-oxopyrrolidine-2-carboxamide] |
| active | O=S(=O)(Nc1cccc(Br)c1)c1ccc(-c2nnc(C3CCC3)o2)s1 [Hit 2, N-(3-bromophenyl)-5-(5-cyclobutyl-1,3,4-oxadiazol-2-yl)thiophene-2-sulfonamide] |
| active | Cc1ccc(CN2CCN(CC(=O)Nc3ccc(C(C)C)cc3)C(=O)C2=O)cc1 [Hit 8, 2-{4-[(4-methylphenyl)methyl]-2,3-dioxopiperazin-1-yl}-N-[4-(propan-2-yl)phenyl]acetamide] |
